Measured values: ChEMBL document CHEMBL5653631, “A Potent and Selective ULK1 Inhibitor Suppresses Autophagy and Sensitizes Cancer Cells to Nutrient Stress” (iScience, 2018)

How the values were obtained:
[1] = target: T1, Ephrin type-A receptor 1 (Homo sapiens) (UniProt P21709); assay: Inhibition of human recombinant EphA1 at 500 nM in presence of ATP by radiometric assay relative to control
T1 sequence (whole entry): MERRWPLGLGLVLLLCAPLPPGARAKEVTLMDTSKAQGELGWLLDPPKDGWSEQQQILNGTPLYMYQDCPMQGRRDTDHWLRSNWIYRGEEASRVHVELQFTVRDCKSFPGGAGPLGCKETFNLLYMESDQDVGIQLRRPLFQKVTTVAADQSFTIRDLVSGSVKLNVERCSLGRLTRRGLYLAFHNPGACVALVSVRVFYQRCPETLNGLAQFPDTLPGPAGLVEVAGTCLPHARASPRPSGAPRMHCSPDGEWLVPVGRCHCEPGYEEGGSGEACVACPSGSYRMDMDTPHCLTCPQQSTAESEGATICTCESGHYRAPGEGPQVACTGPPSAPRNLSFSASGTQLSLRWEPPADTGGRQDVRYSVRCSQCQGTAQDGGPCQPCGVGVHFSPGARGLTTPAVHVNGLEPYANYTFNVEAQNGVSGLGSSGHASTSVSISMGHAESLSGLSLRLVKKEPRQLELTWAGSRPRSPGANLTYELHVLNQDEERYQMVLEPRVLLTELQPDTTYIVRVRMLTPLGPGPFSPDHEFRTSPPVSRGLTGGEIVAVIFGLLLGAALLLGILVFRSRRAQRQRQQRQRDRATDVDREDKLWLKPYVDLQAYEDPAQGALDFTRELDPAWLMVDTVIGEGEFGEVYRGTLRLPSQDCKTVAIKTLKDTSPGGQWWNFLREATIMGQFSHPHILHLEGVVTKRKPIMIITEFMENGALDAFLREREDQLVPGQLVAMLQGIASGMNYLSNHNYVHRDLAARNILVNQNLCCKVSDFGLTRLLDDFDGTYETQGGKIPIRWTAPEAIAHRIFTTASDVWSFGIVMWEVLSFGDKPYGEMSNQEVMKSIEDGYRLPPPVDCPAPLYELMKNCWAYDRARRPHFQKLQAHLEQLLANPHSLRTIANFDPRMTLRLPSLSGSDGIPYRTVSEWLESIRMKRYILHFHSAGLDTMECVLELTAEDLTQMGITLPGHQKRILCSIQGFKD

[2] = target: T2, Tyrosine-protein kinase Mer (Homo sapiens) (UniProt Q12866); assay: Inhibition of human recombinant MER at 15 nM in presence of ATP by radiometric assay relative to control
T2 sequence (whole entry): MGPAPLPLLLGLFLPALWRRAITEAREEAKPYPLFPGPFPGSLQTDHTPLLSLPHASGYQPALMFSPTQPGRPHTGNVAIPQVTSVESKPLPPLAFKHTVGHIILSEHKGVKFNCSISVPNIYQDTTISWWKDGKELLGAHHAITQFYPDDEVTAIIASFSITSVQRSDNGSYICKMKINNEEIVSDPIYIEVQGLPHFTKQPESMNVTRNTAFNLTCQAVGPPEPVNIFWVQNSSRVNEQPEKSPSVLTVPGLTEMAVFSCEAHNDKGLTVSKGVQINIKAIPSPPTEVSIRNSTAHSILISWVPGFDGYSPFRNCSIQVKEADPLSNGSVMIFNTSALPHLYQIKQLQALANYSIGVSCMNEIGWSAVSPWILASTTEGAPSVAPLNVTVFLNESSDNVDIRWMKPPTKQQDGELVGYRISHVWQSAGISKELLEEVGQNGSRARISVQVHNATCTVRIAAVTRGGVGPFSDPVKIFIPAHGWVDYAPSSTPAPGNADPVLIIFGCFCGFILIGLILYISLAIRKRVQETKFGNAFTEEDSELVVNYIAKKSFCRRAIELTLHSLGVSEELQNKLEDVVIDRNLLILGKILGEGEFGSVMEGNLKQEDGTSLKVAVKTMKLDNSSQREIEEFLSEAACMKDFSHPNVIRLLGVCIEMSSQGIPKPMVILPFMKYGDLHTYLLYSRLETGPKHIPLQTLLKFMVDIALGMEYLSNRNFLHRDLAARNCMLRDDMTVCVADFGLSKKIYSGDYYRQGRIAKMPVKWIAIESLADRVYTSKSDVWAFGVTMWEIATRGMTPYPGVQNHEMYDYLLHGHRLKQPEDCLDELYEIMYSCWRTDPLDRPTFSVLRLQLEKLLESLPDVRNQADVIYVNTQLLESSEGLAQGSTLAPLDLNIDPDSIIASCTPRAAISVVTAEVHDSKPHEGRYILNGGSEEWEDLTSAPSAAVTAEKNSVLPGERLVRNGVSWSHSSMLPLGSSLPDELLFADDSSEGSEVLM

[3] = target: T3, Bone morphogenetic protein receptor type-2 (Homo sapiens) (UniProt Q13873); assay: Inhibition of human recombinant BMPR2 at 15 nM related to control ULK1
T3 sequence (whole entry): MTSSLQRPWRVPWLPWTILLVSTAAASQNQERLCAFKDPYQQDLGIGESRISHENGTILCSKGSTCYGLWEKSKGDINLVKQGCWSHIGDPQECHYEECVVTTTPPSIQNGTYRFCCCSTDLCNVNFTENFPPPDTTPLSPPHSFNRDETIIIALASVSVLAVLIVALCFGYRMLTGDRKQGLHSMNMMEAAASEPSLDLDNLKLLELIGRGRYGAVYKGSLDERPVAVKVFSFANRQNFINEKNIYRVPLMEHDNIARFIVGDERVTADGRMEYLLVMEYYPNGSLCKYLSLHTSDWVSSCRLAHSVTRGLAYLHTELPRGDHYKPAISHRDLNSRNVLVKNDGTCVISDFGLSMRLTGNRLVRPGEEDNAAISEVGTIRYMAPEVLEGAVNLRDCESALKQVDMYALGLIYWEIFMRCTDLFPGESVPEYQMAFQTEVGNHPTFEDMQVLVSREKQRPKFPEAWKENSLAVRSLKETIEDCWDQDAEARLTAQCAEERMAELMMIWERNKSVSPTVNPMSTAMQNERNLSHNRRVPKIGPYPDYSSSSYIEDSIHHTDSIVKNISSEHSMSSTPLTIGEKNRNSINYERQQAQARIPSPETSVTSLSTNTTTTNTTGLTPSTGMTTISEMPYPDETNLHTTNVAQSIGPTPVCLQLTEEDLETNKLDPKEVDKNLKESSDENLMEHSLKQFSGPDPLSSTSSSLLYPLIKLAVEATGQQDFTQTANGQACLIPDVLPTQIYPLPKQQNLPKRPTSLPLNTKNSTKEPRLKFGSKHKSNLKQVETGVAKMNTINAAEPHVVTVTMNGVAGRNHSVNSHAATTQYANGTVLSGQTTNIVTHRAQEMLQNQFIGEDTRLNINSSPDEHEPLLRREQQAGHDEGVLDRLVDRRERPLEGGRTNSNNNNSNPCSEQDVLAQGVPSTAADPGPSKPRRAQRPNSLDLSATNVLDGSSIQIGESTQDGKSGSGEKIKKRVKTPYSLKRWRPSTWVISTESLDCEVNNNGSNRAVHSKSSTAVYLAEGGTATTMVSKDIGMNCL

[4] = target: Ephrin type-A receptor 2 (Homo sapiens) (UniProt P29317); assay: Inhibition of human recombinant EphA2 at 15 nM related to control ULK1
Chain of Ephrin type-A receptor 2 (Homo sapiens) (P29317 whole entry): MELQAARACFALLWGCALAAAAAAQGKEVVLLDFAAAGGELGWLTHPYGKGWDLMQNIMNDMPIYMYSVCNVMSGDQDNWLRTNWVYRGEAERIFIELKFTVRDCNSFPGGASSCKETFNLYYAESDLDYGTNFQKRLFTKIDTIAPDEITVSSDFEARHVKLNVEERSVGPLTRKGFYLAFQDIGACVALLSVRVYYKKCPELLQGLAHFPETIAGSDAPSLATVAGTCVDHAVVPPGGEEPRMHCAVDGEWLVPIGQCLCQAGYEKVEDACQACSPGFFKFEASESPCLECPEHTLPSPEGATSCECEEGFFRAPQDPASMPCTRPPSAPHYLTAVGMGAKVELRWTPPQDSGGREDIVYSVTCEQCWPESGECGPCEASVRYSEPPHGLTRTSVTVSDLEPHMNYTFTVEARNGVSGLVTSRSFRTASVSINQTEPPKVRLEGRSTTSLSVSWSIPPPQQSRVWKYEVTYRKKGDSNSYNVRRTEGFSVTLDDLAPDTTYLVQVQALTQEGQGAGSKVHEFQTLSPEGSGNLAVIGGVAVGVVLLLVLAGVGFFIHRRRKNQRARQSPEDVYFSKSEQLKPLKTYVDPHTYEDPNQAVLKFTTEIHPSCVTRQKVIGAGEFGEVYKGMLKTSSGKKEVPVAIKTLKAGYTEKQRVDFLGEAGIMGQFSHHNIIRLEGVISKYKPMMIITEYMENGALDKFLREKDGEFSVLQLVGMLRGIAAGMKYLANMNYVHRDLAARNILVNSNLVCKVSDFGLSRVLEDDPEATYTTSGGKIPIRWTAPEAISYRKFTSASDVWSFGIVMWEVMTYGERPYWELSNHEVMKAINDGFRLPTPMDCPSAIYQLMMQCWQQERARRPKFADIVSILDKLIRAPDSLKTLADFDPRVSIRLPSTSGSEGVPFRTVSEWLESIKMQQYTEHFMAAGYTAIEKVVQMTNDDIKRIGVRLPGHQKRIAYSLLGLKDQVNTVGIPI

inhibition [1] [%]	inhibition [2] [%]	fold change (FC) [3]	fold change (FC) [4]	SMILES
13				CNC(=O)c1ccccc1Oc1nc(Nc2cc(OC)c(OC)c(OC)c2)ncc1Br
	34	0.06	0	CC(C)[C@H](NC(=O)c1cc(-c2cnn3cc(-c4ccc(OCCN5CCCCC5)cc4)cnc23)cs1)C(F)(F)F
